Data: patent US20260308159A1, “BICYCLIC HETEROARYLAMIDES HAVING GPR68 MODULATING ACTIVITY” (RECURSION PHARMACEUTICALS, INC., priority 2023, published 2026)
Like-named read-outs stand apart in the source and are kept apart here.

Molecular target: T1, human GPR68 (Homo sapiens, UniProt Q15743)
T1 construct: encoding full-length human GPR68 (uniprot ID: Q15743); expressed in transfected cells; host or cells: HEK293T
Experiment: GPR68 Biochemical Assay (Promega GloSensor cAMP assay, GPR68 antagonism)
Format: cell-based
Settings: 15 min
Method: GPR68 antagonism was determined using the Promega GloSensor™ CAMP assay (F. I. Wang et al., Methods 2021, S1046-2023 (21) 00249-8). HEK293T cells (obtained from ECACC, Cat 12022001, Lot no. 17E044) were cultured in T175 flasks (Greiner, Cat 660175) in DMEM (Gibco, Cat 11995-065) supplemented with 10% Fetal Bovine Serum (Gibco Cat 16000-044), and 100 u/mL Pen-Strep (Gibco, Cat 15140) at 37° C. and 5% CO2. GPR68 expression was achieved by transient transfection with a mammalian expression plasmid encoding full-length human GPR68 (uniprot ID: Q15743) under control of a CMV promoter. The day before transfection, cell media was aspirated and HEK293T cells were incubated with accutase (Sigma, Cat A6964) for 3-4 minutes 37° C. and 5% CO2 before being manually detached with excess DMEM and trituration. Cell density was determined by automated cell counting (Countess, Invitrogen) and adjusted to 6×10^6 cells/20 mL and transferred to 15 cm dishes (Thermo Fisher, Cat 130183) for overnight incubation at 37° C. and 5% CO2. The next day separate mammalian expression plasmids encoding hGPR68 (4 μg) and Promega GloSensor (8 μg) were diluted to 1 mL in Opti-MEM (Thermo Fisher Scientific, Cat 31985070) and incubated with 30 μL of lipofectamine 3000 (also diluted to 1 mL in Opti-MEM) for 15 minutes at room temperature and subsequently added dropwise to the plated cells. Post transfection cells were then incubated at 37° C. and 5% CO2 for at least 16 hours before transfer to assay plates the following day. Transfer was conducted by washing cells with PBS and incubating with accutase for 3-4 minutes 37° C. and 5% CO2 before being manually detached with excess DMEM and mild trituration. The suspension was then centrifuged at 192 RCF for 4 minutes in a 50 mL centrifuge tube (Greiner, Cat 227261).
Supernatant was removed by aspiration and the cell pellet was resuspended in DMEM+1% dialysed FBS (Gibco, Cat 26400-044) and 100 u/mL Pen-Strep to a cell density of 500 cells/μL. Cells were plated into poly-L-Lysine coated 384-well white assay plates (Corning, Cat 3570) at a final volume of 40 µL and a density of 20,000 cells/well before overnight incubation at 37° C. and 5% CO2. The following day media was manually ejected from the 384-well assay plate and replaced with 10 μL GloSensor substrate (Promega, Cat E1291) prepared in pH 8.0 assay buffer (1×HBSS, 10 mM HEPES, 10 mM MOPS). Cells were incubated with this solution for 60 minutes at room temperature in the dark. Test compounds or an equivalent volume of DMSO (vehicle) were added to compounds plates to create a 9-point, half-log concentration series for each compound with a maximum final assay concentration of 50 μM and a consistent final DMSO concentration of 0.5%. Assay buffer with 0.1% BSA and 0.01% ascorbic acid was prepared at three pHs: pH 8.0, pH 5.5 and pH 4.5. pH 8.0 and 4.5 were added to the compound plate as maximum and minimum effect controls whilst pH 5.5 was added to all compound wells to stimulate GPR68 to a level corresponding to […] of maximal stimulation after addition to the cells already in pH 8.0 (assay acceptance criteria range 70-90%). DMSO/Compound and buffer was added to the plated cells containing the GloSensor substrate and incubated for 15 minutes at room temperature before being read on a microplate reader (BMG PHERAstar, optic module LUM Plus with Gain 3600). Data was exported and analysed in excel and Graphpad prism (version 9). Assay QC acceptance criteria required the maximum and minimum controls to return a Z′≥0.5, the EC80 to be 80%±10% of expected and the reference ligand pIC50 to be within one-half-log unit of its historical IC50. Percent inhibition was calculated using the mean EC80 (pH 5.5) and mean minimum effect control (pH 8.0). Data were plotted as percentage inhibition, average±SEM. IC50, Emax, Emin, Actual max, actual min, R^2 and fit confidence were calculated using Graphpad Prism's sigmoidal dose-response function.

[1] = HEK293T cells transiently expressing hGPR68, antagonism of pH 5.5 stimulated cAMP, read-out: hGPR68 IC50
[2] = hGPR68 IC50, HEK293T cells transiently expressing hGPR68, antagonism of pH 5.5 stimulated cAMP

T1 sequence (Q15743 whole entry): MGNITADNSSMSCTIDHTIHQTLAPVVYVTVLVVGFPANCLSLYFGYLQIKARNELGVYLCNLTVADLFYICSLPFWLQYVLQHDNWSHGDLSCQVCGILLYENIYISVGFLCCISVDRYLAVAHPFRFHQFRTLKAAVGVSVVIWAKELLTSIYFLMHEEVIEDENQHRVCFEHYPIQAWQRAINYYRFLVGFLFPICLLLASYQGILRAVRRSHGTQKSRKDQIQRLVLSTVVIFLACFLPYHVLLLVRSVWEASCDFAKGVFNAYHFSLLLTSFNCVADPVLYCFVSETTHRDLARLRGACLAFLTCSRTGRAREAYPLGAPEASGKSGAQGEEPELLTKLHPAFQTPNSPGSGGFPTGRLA

Work on `CN1CC(c2nn3c(C(=O)NC4Cc5ccccc5C4)ccnc3c2C(N)=O)C1` [Compound 24, N7-indan-2-yl-2-(1-methylazetidin-3-yl)pyrazolo[1,5-a]pyrimidine-3,7-dicarboxamide] yielded an IC50 [1] of 50000 to 100000 nM.

`NC(=O)c1c(-c2ncco2)nn2c(C(=O)NC3CC(F)(F)C3)ccnc12` [Compound 25, N7-(3,3-difluorocyclobutyl)-2-oxazol-2-yl-pyrazolo[1,5-a]pyrimidine-3,7-dicarboxamide] was tested, and the IC50 [1] was 500 to 5000 nM.

For `Cc1nc2c(C(=O)NC3CC(F)(F)C3)ccnn2c1C(N)=O` [Compound 26, N8-(3,3-difluorocyclobutyl)-2-methyl-imidazo[1,2-b]pyridazine-3,8-dicarboxamide], the IC50 [1] was 50 to 500 nM.

With `CC(C)OCc1nn2c(C(=O)NC3Cc4ccccc4C3)ccnc2c1C(N)=O` [Compound 27, N7-indan-2-yl-2-(isopropoxymethyl)pyrazolo[1,5-a]pyrimidine-3,7-dicarboxamide] the IC50 [2] was less than 50 nM.

With `CC(C)OCc1nn2c(C(=O)NC3CC(F)(F)C3)ccnc2c1C(N)=O` [Compound 28, N7-(3,3-difluorocyclobutyl)-2-(isopropoxymethyl)pyrazolo[1,5-a]pyrimidine-3,7-dicarboxamide] the IC50 [2] was 5000 to 50000 nM.

In the case of `CN(C)Cc1nn2c(C(=O)NC3Cc4ccccc4C3)ccnc2c1C(N)=O` [Compound 29, 2-[(dimethylamino)methyl]-N7-indan-2-yl-pyrazolo[1,5-a]pyrimidine-3,7-dicarboxamide], the IC50 [1] is reported as 500 to 5000 nM.

With `CNCc1nn2c(C(=O)NC3Cc4ccccc4C3)ccnc2c1C(N)=O` [Compound 30, N7-indan-2-yl-2-(methylaminomethyl)pyrazolo[1,5-a]pyrimidine-3,7-dicarboxamide] the IC50 [1] was 500 to 5000 nM.

`O=C(NC1Cc2ccccc2C1)c1cccc2c(-c3ncco3)cnn12` [Compound 31, N-indan-2-yl-3-oxazol-2-yl-pyrazolo[1,5-a]pyridine-7-carboxamide] showed an IC50 [1] of 5000 to 50000 nM.

`Cc1nn2c(C(=O)NC3CC(F)(F)C3)c(-c3cn[nH]c3)cnc2c1C(N)=O` [Compound 32, N7-(3,3-difluorocyclobutyl)-2-methyl-6-(1H-pyrazol-4-yl)pyrazolo[1,5-a]pyrimidine-3,7-dicarboxamide] showed an IC50 [1] of 500 to 5000 nM.

Work on `NC(=O)c1c(-c2ncco2)nn2c(C(=O)NC3Cc4ccccc4C3)ccnc12` [Compound 33, N7-indan-2-yl-2-oxazol-2-yl-pyrazolo[1,5-a]pyrimidine-3,7-dicarboxamide] yielded an IC50 [2] of less than 50 nM.

`CNc1nn2c(C(=O)NC3CC(F)(F)C3)ccnc2c1C(N)=O` [Compound 34, N7-(3,3-difluorocyclobutyl)-2-(methylamino)pyrazolo[1,5-a]pyrimidine-3,7-dicarboxamide] was tested, and the IC50 [1] was less than 50 nM.

`CN(C)c1nn2c(C(=O)NC3CC(F)(F)C3)ccnc2c1C(N)=O` [Compound 35, N7-(3,3-difluorocyclobutyl)-2-(dimethylamino)pyrazolo[1,5-a]pyrimidine-3,7-dicarboxamide] showed an IC50 [1] of 500 to 5000 nM.

`NC(=O)c1c(-c2ccccc2F)nn2c(C(=O)NC3Cc4ccccc4C3)cccc12` [Compound 36, 2-(2-fluorophenyl)-N7-indan-2-yl-pyrazolo[1,5-a]pyridine-3,7-dicarboxamide] was tested, and the IC50 [1] was 500 to 5000 nM.

In the case of `NC(=O)c1c(C2CCOC2)nn2c(C(=O)NC3Cc4ccccc4C3)ccnc12` (centres unmarked) [Compound 37, N7-indan-2-yl-2-tetrahydrofuran-3-yl-pyrazolo[1,5-a]pyrimidine-3,7-dicarboxamide], the IC50 [2] is reported as less than 50 nM.

In the case of `Cc1cnc2c(C(N)=O)c(C)nn2c1C(=O)NC1CC(F)(F)C1` [Compound 38, N7-(3,3-difluorocyclobutyl)-2,6-dimethyl-pyrazolo[1,5-a]pyrimidine-3,7-dicarboxamide], the IC50 [2] is reported as 5000 to 50000 nM.

With `COCc1cc(C(=O)NC2CC(F)(F)C2)n2nc(C)c(C(N)=O)c2n1` [Compound 39, N7-(3,3-difluorocyclobutyl)-5-(methoxymethyl)-2-methyl-pyrazolo[1,5-a]pyrimidine-3,7-dicarboxamide] the IC50 [2] was 500 to 5000 nM.

Work on `CNC(=O)c1c(-c2ccccc2)nn2c(C(=O)NC3Cc4ccccc4C3)cccc12` [Compound 40, N7-indan-2-yl-N3-methyl-2-phenyl-pyrazolo[1,5-a]pyridine-3,7-dicarboxamide] yielded an IC50 [1] of 50000 to 100000 nM.

Compound `COc1cc(C(=O)NC2CC(F)(F)C2)n2nc(C)c(C(N)=O)c2n1` [Compound 41, N7-(3,3-difluorocyclobutyl)-5-methoxy-2-methyl-pyrazolo[1,5-a]pyrimidine-3,7-dicarboxamide] has an IC50 [2] of 500 to 5000 nM.

`Cc1cc(C(=O)NC2CC(F)(F)C2)n2nc(C)c(C(N)=O)c2n1` [Compound 42, N7-(3,3-difluorocyclobutyl)-2,5-dimethyl-pyrazolo[1,5-a]pyrimidine-3,7-dicarboxamide] was tested, and the IC50 [1] was 50 to 500 nM.

`NC(=O)c1c(C2CCCO2)nn2c(C(=O)NC3CC(F)(F)C3)ccnc12` (centres unmarked) [Compound 43, N7-(3,3-difluorocyclobutyl)-2-tetrahydrofuran-2-yl-pyrazolo[1,5-a]pyrimidine-3,7-dicarboxamide] gave an IC50 [2] of 50 to 500 nM.

`NC(=O)c1c(C2CCCO2)nn2c(C(=O)NC3Cc4ccccc4C3)ccnc12` (centres unmarked) [Compound 44, N7-indan-2-yl-2-tetrahydrofuran-2-yl-pyrazolo[1,5-a]pyrimidine-3,7-dicarboxamide] gave an IC50 [2] of 50 to 500 nM.

`NC(=O)c1c(C2CCOC2)nn2c(C(=O)NC3CC(F)(F)C3)ccnc12` (centres unmarked) [Compound 45, N7-(3,3-difluorocyclobutyl)-2-tetrahydrofuran-3-yl-pyrazolo[1,5-a]pyrimidine-3,7-dicarboxamide] was tested, and the IC50 [2] was 500 to 5000 nM.

With `Cc1nn2c(C(=O)NC3Cc4ccccc4C3)ccnc2c1C(N)=O` [Compound 46, N7-indan-2-yl-2-methyl-pyrazolo[1,5-a]pyrimidine-3,7-dicarboxamide] the IC50 [1] was less than 50 nM.

Compound `Cc1nn2c(C(=O)NC3COc4ccccc4C3)ccnc2c1C(N)=O` (centres unmarked) [Compound 47, N7-chroman-3-yl-2-methyl-pyrazolo[1,5-a]pyrimidine-3,7-dicarboxamide] has an IC50 [1] of 500 to 5000 nM.

`Cc1nn2c(C(=O)NC3CC(F)(F)C3)ccnc2c1C(N)=O` [Compound 48, N7-(3,3-difluorocyclobutyl)-2-methyl-pyrazolo[1,5-a]pyrimidine-3,7-dicarboxamide] showed an IC50 [1] of 50 to 500 nM.

`Cc1nn2c(C(=O)NC3Cc4cccnc4C3)ccnc2c1C(N)=O` (centres unmarked) [Compound 49, N7-(6,7-dihydro-5H-cyclopenta[b]pyridin-6-yl)-2-methyl-pyrazolo[1,5-a]pyrimidine-3,7-dicarboxamide] gave an IC50 [1] of 500 to 5000 nM.

`Cc1nn2c(C(=O)N[C@H]3C[C@@H](C#N)C3)ccnc2c1C(N)=O` [Compound 50, N7-(cis-3-cyanocyclobutyl)-2-methyl-pyrazolo[1,5-a]pyrimidine-3,7-dicarboxamide] was tested, and the IC50 [1] was 500 to 5000 nM.

In the case of `Cc1nn2c(C(=O)NC3Cc4ccc(Cc5ccccc5)cc4C3)ccnc2c1C(N)=O` (centres unmarked) [Compound 51, N7-(5-benzylindan-2-yl)-2-methyl-pyrazolo[1,5-a]pyrimidine-3,7-dicarboxamide], the IC50 [1] is reported as 5000 to 50000 nM.

For `Cc1nn2c(C(=O)NC3Cc4ccncc4C3)ccnc2c1C(N)=O` (centres unmarked) [Compound 52, N7-(6,7-dihydro-5H-cyclopenta[c]pyridin-6-yl)-2-methyl-pyrazolo[1,5-a]pyrimidine-3,7-dicarboxamide], the IC50 [1] was 5000 to 50000 nM.
